Test results: ChEMBL document CHEMBL1909046, “DrugMatrix in vitro pharmacology data”

What was measured:
[1] = biological target: Prostaglandin G/H synthase 1 (Homo sapiens, UniProt P23219); test: biochemical; format: tissue-based, Platelet; conditions: platelet;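 note: inhibition of COX-1 enzyme activity, with arachidonic acid supplied as substrate; in other assays of this panel Not Active means under 50% inhibition at 10 µM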
[2] = biological target: T1, 5-hydroxytryptamine receptor 2C (Homo sapiens, UniProt P28335); test: DRUGMATRIX: Serotonin (5-Hydroxytryptamine) 5-HT2C radioligand binding (ligand: [3H] Mesulergine); format: cell membranes, CHO-K1, Membrane; conditions: cho-k1; Not Active = under 50% inhibition at 10 µM
T1 sequence (P28335 whole entry): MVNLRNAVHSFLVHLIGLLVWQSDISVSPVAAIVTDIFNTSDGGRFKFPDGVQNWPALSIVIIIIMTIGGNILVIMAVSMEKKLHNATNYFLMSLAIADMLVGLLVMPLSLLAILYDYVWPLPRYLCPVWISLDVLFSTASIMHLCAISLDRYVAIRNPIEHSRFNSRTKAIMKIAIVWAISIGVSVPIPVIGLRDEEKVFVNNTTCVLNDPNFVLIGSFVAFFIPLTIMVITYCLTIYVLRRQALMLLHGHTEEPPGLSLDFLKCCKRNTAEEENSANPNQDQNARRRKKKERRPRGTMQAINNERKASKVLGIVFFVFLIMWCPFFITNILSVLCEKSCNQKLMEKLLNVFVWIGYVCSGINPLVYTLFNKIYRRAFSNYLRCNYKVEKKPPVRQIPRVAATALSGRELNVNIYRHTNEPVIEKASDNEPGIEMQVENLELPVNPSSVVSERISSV

[3] = DRUGMATRIX: Tumor Necrosis Factor (TNF), Non-Selective radioligand binding (ligand: [125I] TNF-alpha); format: cell membranes, Membrane; conditions: u-937; Not Active = under 50% inhibition at 10 µM
[4] = DRUGMATRIX: Glutamate, NMDA, Agonism radioligand binding (ligand: [3H] CGP-39653); format: cell membranes, Rattus norvegicus, Wistar, Cerebral cortex, Membrane; conditions: Not Active = under 50% inhibition at 10 µM
[5] = DRUGMATRIX: Atrial Natriuretic Factor (ANF) radioligand binding (ligand: [125I] ANF (rat)); format: cell membranes, Cavia porcellus, Dunkin-Hartley, Adrenal gland, Membrane; conditions: Not Active = under 50% inhibition at 10 µM
[6] = biological target: T2, Angiotensin-converting enzyme (Oryctolagus cuniculus, UniProt P12822); test: biochemical; format: tissue-based, Lung;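 note: enzymatic inhibition of angiotensin-converting enzyme measured with FAPGG as the substrate; in other assays of this panel Not Active means under 50% inhibition at 10 µM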
T2 sequence (P12822 whole entry): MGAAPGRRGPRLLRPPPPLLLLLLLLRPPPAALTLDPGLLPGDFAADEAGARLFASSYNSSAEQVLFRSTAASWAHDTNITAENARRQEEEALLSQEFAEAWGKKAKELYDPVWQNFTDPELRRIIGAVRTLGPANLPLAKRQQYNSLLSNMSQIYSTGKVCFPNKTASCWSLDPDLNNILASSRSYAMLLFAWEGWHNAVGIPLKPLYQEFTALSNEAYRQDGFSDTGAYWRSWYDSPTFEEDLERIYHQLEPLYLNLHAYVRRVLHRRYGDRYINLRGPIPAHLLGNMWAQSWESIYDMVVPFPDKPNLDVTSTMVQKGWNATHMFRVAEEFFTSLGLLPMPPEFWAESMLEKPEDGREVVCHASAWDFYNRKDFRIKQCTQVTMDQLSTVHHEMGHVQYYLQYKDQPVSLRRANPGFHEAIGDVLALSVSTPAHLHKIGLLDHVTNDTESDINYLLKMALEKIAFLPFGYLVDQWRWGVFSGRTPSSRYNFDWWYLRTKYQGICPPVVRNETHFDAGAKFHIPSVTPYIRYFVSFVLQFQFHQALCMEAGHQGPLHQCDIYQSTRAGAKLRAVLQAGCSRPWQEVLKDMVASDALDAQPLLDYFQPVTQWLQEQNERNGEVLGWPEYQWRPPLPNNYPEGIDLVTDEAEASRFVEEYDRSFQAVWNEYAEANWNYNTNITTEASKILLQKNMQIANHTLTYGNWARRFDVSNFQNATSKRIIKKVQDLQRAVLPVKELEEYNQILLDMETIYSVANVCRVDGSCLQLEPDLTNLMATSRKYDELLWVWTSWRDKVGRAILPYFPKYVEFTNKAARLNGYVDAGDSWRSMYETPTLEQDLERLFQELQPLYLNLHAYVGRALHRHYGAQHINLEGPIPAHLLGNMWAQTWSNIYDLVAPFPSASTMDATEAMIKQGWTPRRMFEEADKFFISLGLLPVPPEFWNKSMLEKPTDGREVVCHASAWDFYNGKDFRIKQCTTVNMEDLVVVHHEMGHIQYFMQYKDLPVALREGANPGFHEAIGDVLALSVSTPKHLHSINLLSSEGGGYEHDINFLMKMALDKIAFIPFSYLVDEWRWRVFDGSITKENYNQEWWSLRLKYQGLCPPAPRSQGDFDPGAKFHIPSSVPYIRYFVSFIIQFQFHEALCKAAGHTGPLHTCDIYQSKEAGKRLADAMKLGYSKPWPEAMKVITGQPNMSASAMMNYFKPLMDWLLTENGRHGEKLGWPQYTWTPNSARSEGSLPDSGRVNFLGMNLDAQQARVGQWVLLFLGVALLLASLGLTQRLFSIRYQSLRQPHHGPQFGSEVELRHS

[7] = DRUGMATRIX: Nicotinic Acetylcholine radioligand binding (ligand: [125I] Epibatidine); format: cell membranes, Membrane; conditions: imr-32; Not Active = under 50% inhibition at 10 µM
[8] = biological target: Beta-2 adrenergic receptor (Homo sapiens, UniProt P07550); test: DRUGMATRIX: Adrenergic beta2 radioligand binding (ligand: [3H] CGP-12177); format: cell membranes, Membrane; conditions: cho; Not Active = under 50% inhibition at 10 µM
Chain of Beta-2 adrenergic receptor (P07550 whole entry): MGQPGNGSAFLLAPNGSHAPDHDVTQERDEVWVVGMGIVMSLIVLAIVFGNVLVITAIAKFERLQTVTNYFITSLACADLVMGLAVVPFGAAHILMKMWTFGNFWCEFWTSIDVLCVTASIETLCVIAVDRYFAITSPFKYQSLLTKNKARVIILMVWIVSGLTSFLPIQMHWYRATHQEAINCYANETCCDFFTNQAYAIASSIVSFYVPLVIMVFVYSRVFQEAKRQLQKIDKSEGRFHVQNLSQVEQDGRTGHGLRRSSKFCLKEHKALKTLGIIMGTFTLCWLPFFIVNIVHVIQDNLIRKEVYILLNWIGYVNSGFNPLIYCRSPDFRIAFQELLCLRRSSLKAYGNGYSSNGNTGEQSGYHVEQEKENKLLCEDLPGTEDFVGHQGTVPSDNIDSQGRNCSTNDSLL

Caspase-1 = biological target: T3, Caspase-1 (Homo sapiens, UniProt P29466); parameters: species or system Escherichia coli;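 note: Caspase-1 enzyme inhibition assay with a peptide substrate; in other assays of this panel Not Active means under 50% inhibition at 10 µM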
T3 sequence (P29466 whole entry): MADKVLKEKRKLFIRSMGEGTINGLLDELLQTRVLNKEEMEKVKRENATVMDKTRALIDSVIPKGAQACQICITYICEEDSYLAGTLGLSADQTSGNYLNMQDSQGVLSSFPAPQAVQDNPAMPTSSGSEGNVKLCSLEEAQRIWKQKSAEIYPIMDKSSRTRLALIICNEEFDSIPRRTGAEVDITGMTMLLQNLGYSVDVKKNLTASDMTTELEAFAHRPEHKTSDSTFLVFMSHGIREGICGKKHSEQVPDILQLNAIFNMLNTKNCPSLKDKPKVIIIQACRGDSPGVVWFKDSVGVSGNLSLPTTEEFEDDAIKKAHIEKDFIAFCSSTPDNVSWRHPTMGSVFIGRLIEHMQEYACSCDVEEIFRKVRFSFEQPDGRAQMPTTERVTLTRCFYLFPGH

[9] = biological target: Protein kinase C alpha type (Homo sapiens, UniProt P17252); format: cell-based; conditions: sf9;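 note: inhibition of PKCalpha kinase activity measured in an enzyme assay with histone as the phosphorylation substrate; in other assays of this panel Not Active means under 50% inhibition at 10 µM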
[10] = biological target: Platelet-activating factor receptor (Homo sapiens, UniProt P25105); test: biochemical; format: tissue-based; conditions: platelet; note: in other assays of this panel Not Active means under 50% inhibition at 10 µM
Chain of Platelet-activating factor receptor (P25105 whole entry): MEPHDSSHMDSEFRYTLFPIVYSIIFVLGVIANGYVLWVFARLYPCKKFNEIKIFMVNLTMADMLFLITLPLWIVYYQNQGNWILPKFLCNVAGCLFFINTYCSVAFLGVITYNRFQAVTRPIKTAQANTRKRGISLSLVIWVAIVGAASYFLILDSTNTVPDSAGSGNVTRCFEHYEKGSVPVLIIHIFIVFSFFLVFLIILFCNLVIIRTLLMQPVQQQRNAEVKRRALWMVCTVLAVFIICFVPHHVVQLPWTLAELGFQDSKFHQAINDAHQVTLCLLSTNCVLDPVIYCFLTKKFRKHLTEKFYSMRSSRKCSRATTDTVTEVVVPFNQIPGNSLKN

Cytochrome P450 3A4 = Cytochrome P450 3A4 (Homo sapiens, UniProt P08684); conditions: bti-tn-5b1-4; note: in other assays of this panel Not Active means under 50% inhibition at 10 µM
Chain of Cytochrome P450 3A4 (P08684 whole entry): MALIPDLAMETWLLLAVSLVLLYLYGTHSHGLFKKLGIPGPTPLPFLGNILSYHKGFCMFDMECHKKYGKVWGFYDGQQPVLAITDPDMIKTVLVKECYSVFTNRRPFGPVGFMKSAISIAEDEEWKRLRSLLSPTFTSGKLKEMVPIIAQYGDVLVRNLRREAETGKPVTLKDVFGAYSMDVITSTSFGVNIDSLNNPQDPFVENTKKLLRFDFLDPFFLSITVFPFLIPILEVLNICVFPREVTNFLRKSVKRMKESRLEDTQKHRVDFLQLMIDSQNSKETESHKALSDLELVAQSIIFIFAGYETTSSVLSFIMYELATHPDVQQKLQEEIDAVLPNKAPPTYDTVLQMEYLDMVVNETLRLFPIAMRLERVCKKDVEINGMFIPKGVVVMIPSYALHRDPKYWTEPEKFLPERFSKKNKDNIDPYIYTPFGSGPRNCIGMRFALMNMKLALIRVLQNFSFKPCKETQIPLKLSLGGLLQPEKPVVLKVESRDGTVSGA

Chain of Prostaglandin G/H synthase 1 (P23219 whole entry): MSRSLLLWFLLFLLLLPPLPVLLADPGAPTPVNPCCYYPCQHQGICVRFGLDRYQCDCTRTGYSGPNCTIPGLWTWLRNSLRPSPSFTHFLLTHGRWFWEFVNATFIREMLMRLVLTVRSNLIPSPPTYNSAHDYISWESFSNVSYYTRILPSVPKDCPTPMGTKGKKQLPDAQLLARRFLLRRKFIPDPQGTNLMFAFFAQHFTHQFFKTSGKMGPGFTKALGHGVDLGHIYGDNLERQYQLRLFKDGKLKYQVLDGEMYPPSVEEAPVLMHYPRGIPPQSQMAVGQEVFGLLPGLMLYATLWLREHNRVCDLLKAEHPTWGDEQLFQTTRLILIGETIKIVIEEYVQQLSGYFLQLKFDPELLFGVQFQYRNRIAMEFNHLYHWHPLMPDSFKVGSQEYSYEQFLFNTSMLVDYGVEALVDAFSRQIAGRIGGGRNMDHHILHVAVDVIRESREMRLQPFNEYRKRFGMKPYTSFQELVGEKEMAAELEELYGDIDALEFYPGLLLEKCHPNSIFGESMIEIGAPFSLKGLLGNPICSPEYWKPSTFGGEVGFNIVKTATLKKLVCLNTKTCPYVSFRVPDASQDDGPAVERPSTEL

Nc1nc(=O)[nH]cc1F [FLUCYTOSINE]
Not Active: IC50 [1] | IC50 [2] | IC50 [3] | Ki [3] | IC50 [4] | Ki [4] | IC50 [5] | Ki [5] | IC50 [6] | IC50 [7] | Ki [7] | IC50 [8] | IC50 (Caspase-1) | IC50 [9] | IC50 [10] | IC50 (Cytochrome P450 3A4) | Ki (Cytochrome P450 3A4)

O=C1OC2(c3ccc(O)cc3Oc3cc(O)ccc32)c2ccccc21 [FLUORESCEIN]
Not Active: IC50 [1] | IC50 [2] | IC50 [3] | Ki [3] | IC50 [4] | Ki [4] | IC50 [5] | Ki [5] | IC50 [6] | IC50 [7] | Ki [7] | IC50 [8] | IC50 (Caspase-1) | IC50 [9] | IC50 [10] | IC50 (Cytochrome P450 3A4) | Ki (Cytochrome P450 3A4)

CC(=O)[C@@]1(O)CC[C@H]2[C@@H]3C[C@H](C)C4=CC(=O)C=C[C@]4(C)[C@@]3(F)[C@@H](O)C[C@@]21C [FLUOROMETHOLONE]
Not Active: IC50 [1] | IC50 [2] | IC50 [3] | Ki [3] | IC50 [4] | Ki [4] | IC50 [5] | Ki [5] | IC50 [6] | IC50 [7] | Ki [7] | IC50 [8] | IC50 (Caspase-1) | IC50 [9] | IC50 [10] | IC50 (Cytochrome P450 3A4) | Ki (Cytochrome P450 3A4)

O=c1[nH]cc(F)c(=O)[nH]1 [FLUOROURACIL]
Not Active: IC50 [1] | IC50 [2] | IC50 [3] | Ki [3] | IC50 [4] | Ki [4] | IC50 [5] | Ki [5] | IC50 [6] | IC50 [7] | Ki [7] | IC50 [8] | IC50 (Caspase-1) | IC50 [9] | IC50 [10] | IC50 (Cytochrome P450 3A4) | Ki (Cytochrome P450 3A4)

CC(C)n1c(/C=C/C(O)CC(O)CC(=O)O)c(-c2ccc(F)cc2)c2ccccc21 (configuration not stated) [FLUVASTATIN]
Not Active: IC50 [1] | IC50 [2] | IC50 [3] | Ki [3] | IC50 [4] | Ki [4] | IC50 [5] | Ki [5] | IC50 [6] | IC50 [7] | Ki [7] | IC50 [8] | IC50 (Caspase-1) | IC50 [9] | IC50 [10] | IC50 (Cytochrome P450 3A4) | Ki (Cytochrome P450 3A4)

NCC1(CC(=O)O)CCCCC1 [GABAPENTIN]
Not Active: IC50 [1] | IC50 [2] | IC50 [3] | Ki [3] | IC50 [4] | Ki [4] | IC50 [5] | Ki [5] | IC50 [6] | IC50 [7] | Ki [7] | IC50 [8] | IC50 (Caspase-1) | IC50 [9] | IC50 [10] | IC50 (Cytochrome P450 3A4) | Ki (Cytochrome P450 3A4)
